Results from US20220089575A1, “FARNESOID X RECEPTOR AGONISTS AND USES THEREOF” (Metacrine, Inc., priority 2017, published 2022).

Each compound was assayed against T1, hFXR (Homo sapiens, UniProt Q96RI1) (assay: In Vitro FXR Assay (TK): TK-ECRE-luc reporter in transfected CV-1 cells). Conditions: 18 hrs, luminescence, maximum efficacy of <25% of the Fexarmine control classified as '+'.
T1 construct: expressed in transfected cells; host or cells: CV-1 cells
T1 sequence (Q96RI1 1-486): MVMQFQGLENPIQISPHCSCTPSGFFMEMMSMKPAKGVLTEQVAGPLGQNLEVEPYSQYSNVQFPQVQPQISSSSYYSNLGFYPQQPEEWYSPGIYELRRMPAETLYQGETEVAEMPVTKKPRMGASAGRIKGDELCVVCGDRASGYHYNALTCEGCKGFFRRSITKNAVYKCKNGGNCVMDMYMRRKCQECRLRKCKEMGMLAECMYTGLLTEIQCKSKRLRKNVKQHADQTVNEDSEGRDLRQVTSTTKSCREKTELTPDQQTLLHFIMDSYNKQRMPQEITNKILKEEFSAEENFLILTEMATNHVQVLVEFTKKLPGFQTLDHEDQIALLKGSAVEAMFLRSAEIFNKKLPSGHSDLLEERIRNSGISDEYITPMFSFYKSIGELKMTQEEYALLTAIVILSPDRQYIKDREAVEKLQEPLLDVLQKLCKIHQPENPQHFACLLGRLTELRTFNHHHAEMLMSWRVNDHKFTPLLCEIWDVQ
T1 sequence (P19793 1-462 partner): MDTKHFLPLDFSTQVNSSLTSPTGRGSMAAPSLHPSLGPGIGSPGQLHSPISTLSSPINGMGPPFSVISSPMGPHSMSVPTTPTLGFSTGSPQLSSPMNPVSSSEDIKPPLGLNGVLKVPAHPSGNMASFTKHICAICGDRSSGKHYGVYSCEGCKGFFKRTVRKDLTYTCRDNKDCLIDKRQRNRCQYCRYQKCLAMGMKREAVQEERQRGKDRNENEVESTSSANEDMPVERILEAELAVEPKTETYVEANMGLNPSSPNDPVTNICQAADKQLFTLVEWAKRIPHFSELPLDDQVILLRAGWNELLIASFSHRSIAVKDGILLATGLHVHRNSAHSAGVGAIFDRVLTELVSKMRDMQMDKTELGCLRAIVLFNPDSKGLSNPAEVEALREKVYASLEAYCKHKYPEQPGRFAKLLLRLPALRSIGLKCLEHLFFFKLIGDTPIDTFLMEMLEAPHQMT
Format: cell-based
How it was run: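 CV-1 cells in DMEM with 10% charcoal-stripped FBS were co-transfected with hFXR, hRXR, TK-ECRE-luc reporter and pCMX-YFP plasmids. After 18 h, compounds serially diluted in DMSO were added for a further 18 h, then cells were lysed and luminescence read.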

Row | EC50 [nM] | Compound
1 | ≤ 250 | COc1ccc([C@H]2CC[C@H](CN(c3cccc(-c4cnn(C5CC5)c4)c3)C(=O)[C@H]3CC[C@H](OC(=O)NCCO)CC3)CC2)cc1C [Compound 4, trans-4-((3-(1-Cyclopropyl-1H-pyrazol-4-yl)phenyl)((trans-4-(4-methoxy-3-methylphenyl)cyclohexyl)methyl)carbamoyl)cyclohexyl (2-hydroxyethyl)carbamate]
2 | ≤ 250 | CN(C)c1ccc(C23CCC(CN(c4cccc(-c5cnc(C6CC6)s5)c4)C(=O)[C@H]4CC[C@H](OC(=O)NCCO)CC4)(CC2)CC3)cn1 [Compound 4.03, 4-((3-(2-Cyclopropylthiazol-5-yl)phenyl)((4-(6-(dimethylamino)pyridin-3-yl)bicyclo[2.2.2]octan-1-yl)methyl)carbamoyl)cyclohexyl (2-hydroxyethyl)trans-carbamate]
3 | ≤ 250 | COc1ccc([C@H]2CC[C@H](CN(c3cc(-c4cnn(C(C)C)c4)ccn3)C(=O)[C@H]3CC[C@H](CO)CC3)CC2)nc1C [Compound 15.03, trans-4-(Hydroxymethyl)-N-(4-(1-isopropyl-1H-pyrazol-4-yl)pyridin-2-yl)-N-((trans-4-(5-methoxy-6-methylpyridin-2-yl)cyclohexyl)methyl) cyclohexanecarboxamide]
4 | ≤ 250 | COc1ccc([C@H]2CC[C@H](CN(c3cccc(-c4cnn(C5CC5)c4)c3)C(=O)[C@H]3CC[C@H](OC(=O)NCCO)CC3)CC2)cc1C#N [Compound 6.19, trans-4-(((trans-4-(3-Cyano-4-methoxyphenyl)cyclohexyl)methyl)(3-(1-cyclopropyl-1H-pyrazol-4-yl)phenyl)carbamoyl)cyclohexyl (2-hydroxyethyl)carbamate]
5 | ≤ 250 | CCNC(=O)O[C@H]1CC[C@H](C(=O)N(C[C@H]2CC[C@H](c3ccc(OC)c(C)n3)CC2)c2cc(-c3cnn(C(C)C)c3)ccn2)CC1 [Compound 5.25, trans-4-((4-(1-Isopropyl-1H-pyrazol-4-yl)pyridin-2-yl)((trans-4-(5-methoxy-6-methylpyridin-2-yl)cyclohexyl)methyl)carbamoyl)cyclohexyl ethylcarbamate]
6 | ≤ 250 | COc1ccc([C@H]2CC[C@H](CN(c3cc(-c4coc(C5CC5)n4)ccn3)C(=O)[C@H]3CC[C@H](OC(=O)N4CC(C#N)C4)CC3)CC2)nc1C [Compound 7.88, trans-4-((4-(2-Cyclopropyloxazol-4-yl)pyridine-2-yl)((trans-4-(5-methoxy-6-methylpyridin-2-yl)cyclohexyl)methyl)carbamoyl)cyclohexyl 3-cyanoazetidine-1-carboxylate]
7 | ≤ 250 | COC(=O)C1CN(C(=O)O[C@H]2CC[C@H](C(=O)N(C[C@H]3CC[C@H](c4ccc(OC)c(C)c4)CC3)c3cccc(-c4cnn(C5CC5)c4)c3)CC2)C1 [Compound 7.34, 1-(trans-4-((3-(1-Cyclopropyl-1H-pyrazol-4-yl)phenyl)((trans-4-(4-methoxy-3-methylphenyl)cyclohexyl)methyl)carbamoyl)cyclohexyl) 3-methylazetidine-1,3-dicarboxylate]
8 | ≤ 250 | CN(C)c1ccc([C@H]2CC[C@H](CN(c3cccc(-c4cnc(C5CC5)s4)c3)C(=O)[C@H]3CC[C@H](CC(=O)O)CC3)CC2)cn1 [Compound 20.06, 2-(trans-4-((3-(2-Cyclopropylthiazol-5-yl)phenyl)((trans-4-(6-(dimethylamino)pyridin-3-yl)cyclohexyl)methyl)carbamoyl)cyclohexyl)acetic acid]
9 | ≤ 250 | COc1ccc([C@H]2CC[C@H](CN(c3cccc(-c4cnc(C(C)C)s4)c3)C(=O)[C@H]3CC[C@H](OC(=O)NCCCO)CC3)CC2)nc1C [Compound 6.05]
10 | 250 to 1000 | COc1ccc([C@H]2CC[C@H](CN(c3cccc(-c4cnc(C5CC5)s4)c3)C(=O)[C@H]3CC[C@H](NC(=O)COCCN)CC3)CC2)cc1C [Compound 32.05, trans-4-(2-(2-Aminoethoxy)acetamido)-N-(3-(2-cyclopropylthiazol-5-yl)phenyl)-N-((trans-4-(4-methoxy-3-methylphenyl)cyclohexyl)methyl) cyclohexanecarboxamide]
11 | ≤ 250 | CNC(=O)O[C@H]1CC[C@H](C(=O)N(C[C@H]2CC[C@H](c3ccc(OC)c(C)c3)CC2)c2cc(-c3coc(C4CC4)n3)ccn2)CC1 [Compound 5.33, trans-4-((4-(2-Cyclopropyloxazol-4-yl)pyridine-2-yl)((trans-4-(4-methoxy-3-methylphenyl)cyclohexyl)methyl)carbamoyl)cyclohexyl methylcarbamate]
12 | ≤ 250 | COc1ccc([C@H]2CC[C@H](CN(c3cccc(-c4cnn(C5CC5)c4)c3)C(=O)[C@H]3CC[C@H](OC(=O)N4CC([S+](C)[O-])C4)CC3)CC2)cc1C (stereo partly drawn) [Compound 8.01, trans-4-((3-(1-Cyclopropyl-1H-pyrazol-4-yl)phenyl)((trans-4-(4-methoxy-3-methylphenyl)cyclohexyl)methyl)carbamoyl)cyclohexyl 3-(methylsulfinyl)azetidine-1-carboxylate]
13 | ≤ 250 | COc1ccc([C@H]2CC[C@H](CN(c3cccc(-c4coc(C5CC5)n4)c3)C(=O)[C@H]3CC[C@H](CC(=O)O)CC3)CC2)cc1C [Compound 21.02, 2-(trans-4-((3-(2-Cyclopropyloxazol-4-yl)phenyl)((trans-4-(4-methoxy-3-methylphenyl)cyclohexyl)methyl)carbamoyl)cyclohexyl)acetic acid]
14 | ≤ 250 | COc1ncc(-c2cccc(N(C[C@H]3CC[C@H](c4ccc(OC)c(C)c4)CC3)C(=O)[C@H]3CC[C@H](C(=O)NCCO)CC3)c2)s1 [Compound 24.03]
15 | ≤ 250 | COCC1CN(C(=O)O[C@H]2CC[C@H](C(=O)N(C[C@H]3CC[C@H](c4ccc(OC)c(C)c4)CC3)c3cccc(-c4cnn(C5CC5)c4)c3)CC2)C1 [Compound 7.26, trans-4-((3-(1-Cyclopropyl-1H-pyrazol-4-yl)phenyl)((trans-4-(4-methoxy-3-methylphenyl)cyclohexyl)methyl)carbamoyl)cyclohexyl 3-(methoxymethyl)azetidine-1-carboxylate]
16 | 250 to 1000 | COc1ccc([C@H]2CC[C@H](CN(c3cc(-c4coc(C5CC5)n4)ccn3)C(=O)[C@H]3CC[C@H](OC(=O)N4CCNCC4)CC3)CC2)nc1C [Compound 6.78, trans-4-(4-(2-Cyclopropyloxazol-4-yl)pyridine-2-yl)((trans-4-(5-methoxy-6-methylpyridin-2-yl)cyclohexyl)methyl) carbamoyl)cyclohexylpiperazine-1-carboxylate]
17 | ≤ 250 | COc1ccc(C23CCC(CN(c4cccc(-c5cnc(C6CC6)s5)c4)C(=O)[C@H]4CC[C@H](C(=O)O)CC4)(CC2)CC3)cc1C [Compound 17.05, trans-4-((3-(2-Cyclopropylthiazol-5-yl)phenyl)((4-(4-methoxy-3-methylphenyl)bicyclo[2.2.2]octan-1-yl)methyl)carbamoyl) cyclohexanecarboxylic acid]
18 | ≤ 250 | CNC(=O)O[C@H]1CC[C@H](C(=O)N(C[C@H]2CC[C@H](c3ccc(OC)c(C)c3)CC2)c2cc(-c3cnc(C4CC4)s3)ccn2)CC1 [Compound 5.01, trans-4-((4-(2-Cyclopropylthiazol-5-yl)pyridin-2-yl)((trans-4-(4-methoxy-3-methylphenyl)cyclohexyl)methyl)carbamoyl)cyclohexyl methylcarbamate]
19 | ≤ 250 | COc1ccc([C@H]2CC[C@H](CN(c3cccc(-c4cnn(C5CC5)c4)c3)C(=O)[C@H]3CC[C@H](C(=O)OC)CC3)CC2)cc1C [Compound 18.13, trans-Methyl 4-((3-(1-cyclopropyl-1H-pyrazol-4-yl)phenyl)((trans-4-(4-methoxy-3-methylphenyl)cyclohexyl)methyl)carbamoyl) cyclohexanecarboxylate]
20 | ≤ 250 | COc1ccc([C@H]2CC[C@H](CN(c3cc(-c4cnc(C5CC5)s4)ccn3)C(=O)[C@H]3CC[C@H](CC(=O)O)CC3)CC2)cc1C#N [Compound 20.05, 2-(trans-4-(((trans-4-(3-Cyano-4-methoxyphenyl)cyclohexyl)methyl)(4-(2-cyclopropylthiazol-5-yl)pyridin-2-yl)carbamoyl)cyclohexyl)acetic acid]
21 | ≤ 250 | COc1ccc([C@H]2CC[C@H](CN(c3cccc(-c4cnn(C5CC5)c4)c3)C(=O)[C@H]3CC[C@H](OC(=O)NCCNC(C)=O)CC3)CC2)cc1C [Compound 26.23, trans-4-((3-(1-Cyclopropyl-1H-pyrazol-4-yl)phenyl)((trans-4-(4-methoxy-3-methylphenyl)cyclohexyl)methyl)carbamoyl)cyclohexyl (2-acetamidoethyl)carbamate]
